In paper PMC12486440, “Design, synthesis, and in silico studies of new benzofuran–pyrazole hybrids as multi-kinase inhibitors with potential antiproliferative activity” (RSC Advances, 2025):

Columns and labels:
[1] = tested on: COLO 205; conditions: Homo sapiens, COLO 205
[2] = tested on: HOP-62
[3] = tested on: SK-MEL-5
[4] = tested on: MDA-MB-468; conditions: single dose 10 μM; breast carcinoma
[5] = tested on: HL-60(TB); test: cells; conditions: Homo sapiens
[6] = tested on: HS 578T; conditions: Homo sapiens
[7] = tested on: NCI-H522
[8] = molecular target: B-Raf (V600E) (Homo sapiens, UniProt P15056, V600E); test: B-Raf kinase inhibitory assay (Kinase-Glo Max); format: biochemical
[9] = tested on: CAKI-1
[10] = tested on: SF-539
[11] = tested on: IGROV1
[12] = tested on: UACC-62; conditions: Homo sapiens, UACC-62
[13] = tested on: A549/ATCC
[14] = tested on: SK-MEL-28
[15] = tested on: OVCAR-4
[16] = tested on: MCF-7 cancer cells; test: Cell cycle analysis (PI flow cytometry); format: cell-based, human; conditions: GI50 concentration 2.75 μM, 48 h
Description: More details are presented in the SI.
Given that 3d has emerged as a well-balanced active compound that functions as both an anticancer agent and a multi-targeting protein kinase suppressor, it was of interest to gain a deeper understanding of how 3d inhibits the growth of cancer cells. A propidium iodide (PI) staining experiment was performed in this study to look at its effect on cell cycle distribution and apoptosis activation.[81,82]
This blocked cell cycle passage at the G0–G1 stage can stop cells from dividing and growing, which is in line with that shown by other tests about the ability of compound 3d to stop cell division and growth (Fig. 3). […]
minute reaction, 50 μl of Kinase-Glo Max reagent was added to each well. […] 10) Luminescence was measured using the microplate reader. […]
The protocol of the experiment depends on the dilution of the enzyme, substrate, ATP, and inhibitors in kinase buffer. […] Then, luminescence (integration time 0.5–1 second) was recorded according to the manufacturer’s instructions. […]
Further exploration of the cytotoxic activity of compound 3d was performed using propidium iodide (PI) flow cytomertric analysis to measure the extent of PI that binds to DNA of dead cells with permeable plasma membranes to determine cell cycle status in tissue culture quantitate cell death at all cell phases. […]

[17] = tested on: Renal cancer subpanel; test: NCI 60 subpanel summary; format: cell-based, human
[18] = tested on: NCI-H23
[19] = tested on: SN12C
[20] = tested on: SNB-75
[21] = tested on: SF-268
[22] = tested on: SW-620
[23] = single dose 10 μM, non-small lung carcinoma
[24] = single dose 10 μM, renal carcinoma
[25] = single dose 10 μM, ovarian carcinoma

Sequence of B-Raf (V600E) (P15056 whole entry V600E): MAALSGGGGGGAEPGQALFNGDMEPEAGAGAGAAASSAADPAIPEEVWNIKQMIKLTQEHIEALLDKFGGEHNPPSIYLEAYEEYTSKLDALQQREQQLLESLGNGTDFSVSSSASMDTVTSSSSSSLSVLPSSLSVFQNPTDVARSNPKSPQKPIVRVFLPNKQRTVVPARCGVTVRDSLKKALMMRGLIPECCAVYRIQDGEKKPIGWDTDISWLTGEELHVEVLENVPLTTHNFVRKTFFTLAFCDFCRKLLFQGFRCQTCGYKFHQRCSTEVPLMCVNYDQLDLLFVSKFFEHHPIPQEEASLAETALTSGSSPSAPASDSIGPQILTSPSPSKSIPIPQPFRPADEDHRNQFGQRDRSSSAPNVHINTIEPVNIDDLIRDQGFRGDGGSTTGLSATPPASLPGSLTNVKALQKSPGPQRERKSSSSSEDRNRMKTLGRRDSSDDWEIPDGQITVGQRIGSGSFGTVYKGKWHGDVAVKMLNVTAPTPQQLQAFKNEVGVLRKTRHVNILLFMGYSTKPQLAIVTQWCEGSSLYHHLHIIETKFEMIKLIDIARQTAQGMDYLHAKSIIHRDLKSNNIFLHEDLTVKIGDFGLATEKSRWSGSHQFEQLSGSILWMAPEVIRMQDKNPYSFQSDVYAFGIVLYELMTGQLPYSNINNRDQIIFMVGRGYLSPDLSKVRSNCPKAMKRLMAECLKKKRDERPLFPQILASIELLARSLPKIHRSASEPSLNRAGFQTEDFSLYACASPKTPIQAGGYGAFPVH

SMILES: c1ccc(-n2cc(C3CC(c4nc5ccccc5[nH]4)=NN3)c(-c3cc4ccccc4o3)n2)cc1 (stereo not drawn) [3d, 3-(Benzofuran-2-yl)-4-(3-(1H-benzo[d]imidazol-2-yl)-4,5-dihydro-1H-pyrazol-5-yl)-1-phenyl-1H-pyrazole]
- GI50 [1]: 5.28 µM
- GI50 ([2]; Homo sapiens, HOP-62): 3.66 µM
- GI% [2, 23]: 74.46%
- GI50 ([3]; Homo sapiens, SK-MEL-5): 2.76 µM
- GI% ([3]; single dose 10 μM, melanoma): 90.42%
- GI% [4]: 70.95%
- GI50 [5]: 2.56 µM
- GI50 [6]: 7.94 µM
- GI50 ([7]; Homo sapiens, NCI-H522): 3.48 µM
- GI% [7, 23]: 96.77%
- IC50 [8]: 0.175 µM
- times less sensitive, B-Raf (V600E), than to vemurafenib ([8]; ratio of IC50 values): 2.8
- GI50 ([9]; Homo sapiens, CAKI-1): 2.57 µM
- GI% [9, 24]: 92.45%
- GI50 ([10]; Homo sapiens, SF-539): 3.97 µM
- GI% ([10]; single dose 10 μM, CNS cancer): 85.47%
- GI50 ([11]; Homo sapiens, IGROV-1): 3.34 µM
- GI% [11, 25]: 89.61%
- GI50 [12]: 1.84 µM
- GI50 ([13]; Homo sapiens, A549): 3.86 µM
- GI% [13, 23]: 87.82%
- GI50 ([14]; Homo sapiens, SK-MEL-28): 4.58 µM
- GI% ([14]; single dose 10 μM, melanoma): 80.99%
- GI50 ([15]; Homo sapiens, OVCAR-4): 3.51 µM
- GI% [15, 25]: 66.52%
- cell percentage in the G2/M stage ([16]; control […]): 15.9%
- percentage of cells in the G0–G1 phase ([16]; untreated 48.39%): 61.03%
- GI50 ([17]; Homo sapiens, subpanel mean graph midpoint, read-out: MG-MID (GI50)): 4.93 µM
- Selectivity index ([17]; full panel MG-MID / subpanel MG-MID): 0.85
- GI50 ([18]; Homo sapiens, NCI-H23): 3.69 µM
- GI% [18, 23]: 78.78%
- GI50 ([19]; Homo sapiens, SN12C): 3.42 µM
- GI% [19, 24]: 88.17%
- GI50 ([20]; Homo sapiens, SNB-75): 2.72 µM
- GI% ([20]; single dose 10 μM, CNS cancer): 65.51%
- GI50 ([21]; Homo sapiens, SF-268): 4.51 µM
- GI% ([21]; single dose 10 μM, CNS cancer): 72.21%
- GI50 ([22]; Homo sapiens, SW-620): 5.95 µM
- GI% ([22]; single dose 10 μM, colon cancer): 76.92%
